Data as given in patent US9701689B2, “Substituted pyridines and pyridazines as CCR10 receptor inhibitors” (KYOWA HAKKO KIRIN CO., LTD., priority 2012, dated 2017).

Biological target: T1, human CCR10 (Homo sapiens, UniProt P46092)
T1 construct: expressed in transfected cells; host or cells: KJMGER8 cells (Namalwa cell-derived line), beta-estradiol-induced; hCCR10G16 cells
T1 sequence (P46092 1-362): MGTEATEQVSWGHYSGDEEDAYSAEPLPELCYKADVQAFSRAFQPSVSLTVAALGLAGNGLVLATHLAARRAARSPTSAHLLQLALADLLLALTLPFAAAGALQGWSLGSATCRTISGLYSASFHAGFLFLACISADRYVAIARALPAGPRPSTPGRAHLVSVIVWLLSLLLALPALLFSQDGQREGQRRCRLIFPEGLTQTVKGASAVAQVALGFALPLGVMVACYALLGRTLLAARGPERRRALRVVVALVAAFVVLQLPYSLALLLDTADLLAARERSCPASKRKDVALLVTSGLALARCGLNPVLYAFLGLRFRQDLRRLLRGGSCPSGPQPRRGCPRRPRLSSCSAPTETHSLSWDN
Test: CCR10 antagonistic effect: calcium assay of human CCR10 (CTACK-induced increase of intracellular calcium in hCCR10G16 cells)
Assay type: cell-based
Settings: at a concentration of not more than 1000 nmol/L; human CCR10-expressing hCCR10G16 cells, 300 nmol/L CTACK added; read-out: inhibition of increase in the calcium ion concentration
Procedure, shortened: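 Inhibition of CTACK-evoked calcium flux (max minus min Fluo-3 fluorescence over ~5 min, FDSS) was calculated against control in β-estradiol-induced human CCR10/Gα16 KJMGER8 cells, after 30 min compound preincubation at 37 °C; CTACK added from a 300 nmol/L solution.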

SMILES: CCOC(=O)NS(=O)(=O)c1cc(Nc2ccc(Cl)cc2C)c(C(=O)N2CCC(c3ccc(F)cc3)CC2)cn1 [Compound 173, ethyl 4-(4-chloro-2-methylphenylamino)-5-[4-(4-fluorophenyl)piperidine-1-carbonyl]pyridin-2-ylsulfonylcarbamate]
- inhibition at up to 1 µM: ≥ 50%

SMILES: CCOC(=O)NS(=O)(=O)c1cc(Nc2ccc(F)cc2C)c(C(=O)N2CCC(c3ccc(F)cc3)CC2)cn1 [Compound 174, ethyl 4-(4-fluoro-2-methylphenylamino)-5-[4-(4-fluorophenyl)piperidine-1-carbonyl]pyridin-2-ylsulfonylcarbamate]
- inhibition at up to 1 µM: ≥ 50%

SMILES: Cc1cc(F)ccc1Nc1cc(S(=O)(=O)NC(=O)OC(C)C)ncc1C(=O)N1CCC(c2ccc(F)cc2)CC1 [Compound 175, isopropyl 4-(4-fluoro-2-methylphenylamino)-5-[4-(4-fluorophenyl)piperidine-1-carbonyl]pyridin-2-ylsulfonylcarbamate]
- inhibition at up to 1 µM: ≥ 50%

SMILES: Cc1cc(Cl)ccc1Nc1c(C(=O)N2CCC(c3ccc(F)cc3)CC2)cnc(S(N)(=O)=O)c1Cl [Compound 177, 3-chloro-4-(4-chloro-2-methylphenylamino)-5-[4-(4-fluorophenyl)piperidine-1-carbonyl]pyridine-2-sulfonamide]
- inhibition at up to 1 µM: ≥ 50%

SMILES: COc1ccc(Nc2c(C(=O)N3CCC(c4ccc(F)cc4)CC3)cnc(S(N)(=O)=O)c2Cl)c(C)c1 [Compound 178, 3-chloro-5-[4-(4-fluorophenyl)piperidine-1-carbonyl]-4-(4-methoxy-2-methylphenylamino)pyridine-2-sulfonamide]
- inhibition at up to 1 µM: ≥ 50%

SMILES: COc1ccc(Nc2c(C(=O)N3CCC(c4ccc(F)cc4)CC3)cnc(S(N)(=O)=O)c2Cl)c(Cl)c1 [Compound 179, 3-chloro-4-(2-chloro-4-methoxyphenylamino)-5-[4-(4-fluorophenyl)piperidine-1-carbonyl]pyridine-2-sulfonamide]
- inhibition at up to 1 µM: ≥ 50%

SMILES: Cc1c(Cl)cccc1Nc1c(C(=O)N2CCC(c3ccc(F)cc3)CC2)cnc(S(N)(=O)=O)c1Cl [Compound 180, 3-chloro-4-(3-chloro-2-methylphenylamino)-5-[4-(4-fluorophenyl)piperidine-1-carbonyl]pyridine-2-sulfonamide]
- inhibition at up to 1 µM: ≥ 50%

SMILES: Cc1ccc(Nc2c(C(=O)N3CCC(c4ccc(F)cc4)CC3)cnc(S(N)(=O)=O)c2Cl)cc1Cl [Compound 181, 3-chloro-4-(3-chloro-4-methylphenylamino)-5-[4-(4-fluorophenyl)piperidine-1-carbonyl]pyridine-2-sulfonamide]
- inhibition at up to 1 µM: ≥ 50%

SMILES: NS(=O)(=O)c1ncc(C(=O)N2CCC(c3ccc(F)cc3)CC2)c(Nc2c(F)cccc2F)c1Cl [Compound 182, 3-chloro-4-(2,6-difluorophenylamino)-5-[4-(4-fluorophenyl)piperidine-1-carbonyl]pyridine-2-sulfonamide]
- inhibition at up to 1 µM: ≥ 50%

SMILES: Cc1cc(F)ccc1Nc1c(C(=O)N2CCC(c3ccc(F)cc3)CC2)cnc(S(=O)(=O)N2CCC(N)CC2)c1Cl [Compound 184, [6-(4-aminopiperidin-1-ylsulfonyl)-5-chloro-4-(4-fluoro-2-methylphenylamino)pyridin-3-yl][4-(4-fluorophenyl)piperidin-1-yl]methanone]
- inhibition at up to 1 µM: ≥ 50%

SMILES: Cc1cc(F)ccc1Nc1c(C(=O)N2CCC(c3ccc(F)cc3)CC2)cnc(S(=O)(=O)N2C(=O)OCC2(C)C)c1Cl [Compound 187, 3-{3-chloro-4-(4-fluoro-2-methylphenylamino)-5-[4-(4-fluorophenyl)piperidine-1-carbonyl]pyridin-2-ylsulfonyl}-4,4-dimethyloxazolidin-2-one]
- inhibition at up to 1 µM: ≥ 50%

SMILES: Cc1cc(F)ccc1Nc1c(C(=O)N2CCC(c3ccc(F)cc3)CC2)cnc(S(=O)(=O)Nc2nccs2)c1Cl [Compound 188, 3-chloro-4-(4-fluoro-2-methylphenylamino)-5-[4-(4-fluorophenyl)piperidine-1-carbonyl]-N-(thiazol-2-yl)pyridine-2-sulfonamide]
- inhibition at up to 1 µM: ≥ 50%

SMILES: Cc1cc(F)ccc1Nc1c(C(=O)N2CCC(c3ccc(F)cc3)CC2)cnc(S(=O)(=O)Nc2c(C)noc2C)c1Cl [Compound 189, 3-chloro-N-(3,5-dimethylisoxazol-4-yl)-4-(4-fluoro-2-methylphenylamino)-5-[4-(4-fluorophenyl)piperidine-1-carbonyl]pyridine-2-sulfonamide]
- inhibition at up to 1 µM: ≥ 50%

SMILES: Cc1cc(F)ccc1Nc1c(C(=O)N2CCC(c3ccc(F)cc3)CC2)cnc(S(=O)(=O)Nc2ccon2)c1Cl [Compound 190, 3-chloro-4-(4-fluoro-2-methylphenylamino)-5-[4-(4-fluorophenyl)piperidine-1-carbonyl]-N-(isoxazol-3-yl)pyridine-2-sulfonamide]
- inhibition at up to 1 µM: ≥ 50%

SMILES: Cc1cc(F)ccc1Nc1c(C(=O)N2CCC(c3ccc(F)cc3)CC2)cnc(S(=O)(=O)Nc2ccccc2)c1Cl [Compound 191, 3-chloro-4-(4-fluoro-2-methylphenylamino)-5-[4-(4-fluorophenyl)piperidine-1-carbonyl]-N-phenylpyridine-2-sulfonamide]
- inhibition at up to 1 µM: ≥ 50%

SMILES: Cc1cc(F)ccc1Nc1c(C(=O)N2CCC(c3ccc(F)cc3)CC2)cnc(S(=O)(=O)n2ccc3ncccc32)c1Cl [Compound 192, [6-(1H-pyrrolo[3,2-b]pyridin-1-ylsulfonyl)-5-chloro-4-(4-fluoro-2-methylphenylamino)pyridin-3-yl][4-(4-fluorophenyl)piperidin-1-yl]methanone]
- inhibition at up to 1 µM: ≥ 50%

SMILES: CONS(=O)(=O)c1ncc(C(=O)N2CCC(c3ccc(F)cc3)CC2)c(Nc2ccc(F)cc2C)c1Cl [Compound 193, 3-chloro-4-(4-fluoro-2-methylphenylamino)-5-[4-(4-fluorophenyl)piperidine-1-carbonyl]-N-methoxypyridine-2-sulfonamide]
- inhibition at up to 1 µM: ≥ 50%

SMILES: Cc1cc(F)ccc1Nc1c(C(=O)N2CCC(c3ccc(F)cc3)CC2)cnc(S(N)(=O)=NC(=O)c2ccccc2)c1Cl (stereo not shown) [Compound 194, 3-chloro-4-(4-fluoro-2-methylphenylamino)-5-[4-(4-fluorophenyl)piperidine-1-carbonyl]-N′-benzoylpyridine-2-sulfonimidamide]
- inhibition at up to 1 µM: ≥ 50%

SMILES: Cc1cc(F)ccc1Nc1c(C(=O)N2CCC(C#N)(c3ccccc3)CC2)cnc(S(N)(=O)=O)c1Cl [Compound 195, 3-chloro-5-(4-cyano-4-phenylpiperidine-1-carbonyl)-4-(4-fluoro-2-methylphenylamino)pyridine-2-sulfonamide]
- inhibition at up to 1 µM: ≥ 50%

SMILES: Cc1cc(Cl)ccc1Nc1c(C(=O)N2CCC(c3ccc(F)cc3)CC2)cnc(S(N)(=O)=O)c1C [Compound 196, 4-(4-chloro-2-methylphenylamino)-5-[4-(4-fluorophenyl)piperidine-1-carbonyl]-3-methylpyridine-2-sulfonamide]
- inhibition at up to 1 µM: ≥ 50%

SMILES: Cc1c(S(N)(=O)=O)ncc(C(=O)N2CCC(c3ccc(F)cc3)CC2)c1Nc1cccc(Cl)c1 [Compound 197, 4-(3-chlorophenylamino)-5-[4-(4-fluorophenyl)piperidine-1-carbonyl]-3-methylpyridine-2-sulfonamide]
- inhibition at up to 1 µM: ≥ 50%

SMILES: Cc1cccc(Nc2c(C(=O)N3CCC(O)(c4ccc(F)cc4)CC3)cnc(S(N)(=O)=O)c2Cl)c1 [Compound 199, 3-chloro-5-[4-(4-fluorophenyl)-4-hydroxypiperidine-1-carbonyl]-4-(m-tolylamino)pyridine-2-sulfonamide]
- inhibition at up to 1 µM: ≥ 50%

SMILES: Cc1cc(F)ccc1Nc1c(C(=O)N2CCC(c3ccc(F)cc3)CC2)cnc(S(=N)(N)=O)c1Cl (stereo not shown) [Compound 200, 3-chloro-4-(4-fluoro-2-methylphenylamino)-5-[4-(4-fluorophenyl)piperidine-1-carbonyl]pyridine-2-sulfonimidamide]
- inhibition at up to 1 µM: ≥ 50%

SMILES: COC(=O)C1(c2ccccc2)CCN(C(=O)c2cnc(S(N)(=O)=O)c(Cl)c2Nc2cccc(C)c2)CC1 [Compound 201, methyl 1-[5-chloro-6-sulfamoyl-4-(m-tolylamino)nicotinoyl]-4-phenylpiperidine-4-carboxylate]
- inhibition at up to 1 µM: ≥ 50%

SMILES: Cc1cccc(Nc2c(C(=O)N3CC=C(c4ccc(F)cc4)CC3)cnc(S(N)(=O)=O)c2Cl)c1 [Compound 202, 3-chloro-5-[4-(4-fluorophenyl)-1,2,3,6-tetrahydropyridine-1-carbonyl]-4-(m-tolylamino)pyridine-2-sulfonamide]
- inhibition at up to 1 µM: ≥ 50%

SMILES: Cc1cccc(Nc2c(C(=O)N3CCC(C(N)=O)(c4ccccc4)CC3)cnc(S(N)(=O)=O)c2Cl)c1 [Compound 203, 1-[5-chloro-6-sulfamoyl-4-(m-tolylamino)nicotinoyl]-4-phenylpiperidine-4-carboxamide]
- inhibition at up to 1 µM: ≥ 50%

SMILES: CCS(=O)(=O)c1ncc(C(=O)N2CCC(c3ccc(F)cc3)CC2)c(Nc2ccccc2C)c1Cl [Compound 204, [5-chloro-6-(ethylsulfonyl)-4-(o-tolylamino)pyridin-3-yl][4-(4-fluorophenyl)piperidin-1-yl]methanone]
- inhibition at up to 1 µM: ≥ 50%

SMILES: Cc1ccccc1Nc1c(C(=O)N2CCC(c3ccc(F)cc3)CC2)cnc(S(=O)(=O)c2ccccc2)c1Cl [Compound 205, [5-chloro-6-(phenylsulfonyl)-4-(o-tolylamino)pyridin-3-yl][4-(4-fluorophenyl)piperidin-1-yl]methanone]
- inhibition at up to 1 µM: ≥ 50%
